Data published in ChEMBL document CHEMBL2176906, “Diterpenoids isolated from Sideritis species protect astrocytes against oxidative stress via Nrf2” (J Nat Prod, 2012).
The source made the active and inactive calls. The rule behind the calls is not given here.

Key:
U373 MG [1] = test: Inhibition of H2O2-induced oxidative stress in human U373MG cells assessed as GSH/GSSG ratio at 5 uM (reference value: 1.8 +/- 0.1 ); assay type: functional, U-373MG ATCC
U373 MG [2] = test: Inhibition of H2O2-induced oxidative stress in human U373MG cells assessed as GSH level per mg protein at 10 uM by fluorimetric method (reference value: 17.1 +/- 1.7 nmol/mg protein); assay type: functional, U-373MG ATCC
U373 MG [3] = test: Induction of ROS production in human U373MG cells at 10 uM after 24 hrs by DCFH-DA assay; assay type: functional, cell-based; conditions: U-373MG ATCC
U373 MG [4] = test: Inhibition of AAPH-induced oxidative stress in human U373MG cells assessed as peroxy radical scavenging activity at 5 uM by ORAC assay; assay type: functional, cell-based; conditions: U-373MG ATCC
U373 MG [5] = test: Induction of Nrf2 nuclear protein expression in H2O2-stimulated human U373MG cells preincubated at 10 uM for 24 hrs before H2O2 challenge by Western blot method; assay type: functional, cell-based; conditions: U-373MG ATCC
U373 MG [6] = test: Inhibition of H2O2-induced oxidative stress in human U373MG cells assessed as GSSG level per mg protein at 5 uM by fluorimetric method (reference value: 9.2 +/- 0.9 nmol/mg protein); assay type: functional, U-373MG ATCC
U-373MG ATCC [7] = test: Antioxidant activity in human U373MG cells assessed as reduction in H2O2-induced morphological changes preincubated at 5 uM for 24 hrs before H2O2 challenge by phase-contrast microscopy; assay type: functional, cell-based
U373 MG [8] = test: Induction of Glutathione reductase activity in human U373MG cells assessed as […] per mg protein preincubated at 10 uM for 24 hrs before H2O2 challenge by fluorimetric method (reference value: 9.3 +/- 2.2 nmol/min/mg protein); assay type: functional, U-373MG ATCC
U373 MG [9] = test: Induction of CAT activity in human U373MG cells assessed per mg protein preincubated at 10 uM for 24 hrs before H2O2 challenge by fluorimetric method (reference value: 18.9 +/- 0.4 UI/mg protein); assay type: functional, U-373MG ATCC
[10] = molecular target: T1, Nuclear factor erythroid 2-related factor 2 (Homo sapiens) (UniProt Q16236); test: Induction of Nrf2-mediated SOD protein expression in H2O2-stimulated human U373MG cells preincubated at 5 uM for 24 hrs before H2O2 challenge by Western blot method; assay type: cell-based; conditions: U-373MG ATCC
T1 sequence (whole entry): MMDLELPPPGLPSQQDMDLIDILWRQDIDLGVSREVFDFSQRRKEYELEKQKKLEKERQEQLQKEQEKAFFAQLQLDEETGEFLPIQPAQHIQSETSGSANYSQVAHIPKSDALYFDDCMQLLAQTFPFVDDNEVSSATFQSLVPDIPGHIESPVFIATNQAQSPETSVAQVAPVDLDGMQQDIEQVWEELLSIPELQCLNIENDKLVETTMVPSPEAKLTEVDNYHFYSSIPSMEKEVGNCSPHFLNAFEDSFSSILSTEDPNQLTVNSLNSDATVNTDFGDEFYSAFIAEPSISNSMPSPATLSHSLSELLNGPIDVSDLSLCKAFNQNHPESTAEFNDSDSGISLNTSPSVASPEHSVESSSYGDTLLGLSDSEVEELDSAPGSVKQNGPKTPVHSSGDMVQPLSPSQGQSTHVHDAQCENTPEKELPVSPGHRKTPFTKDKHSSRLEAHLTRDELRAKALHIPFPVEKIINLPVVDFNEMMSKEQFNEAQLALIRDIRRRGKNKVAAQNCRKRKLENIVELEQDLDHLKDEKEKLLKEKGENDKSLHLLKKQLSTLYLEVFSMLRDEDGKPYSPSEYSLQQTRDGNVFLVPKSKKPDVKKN

[11] = molecular target: T1, Nuclear factor erythroid 2-related factor 2 (Homo sapiens); test: Induction of Nrf2-mediated SOD protein expression in H2O2-stimulated human U373MG cells preincubated at 10 uM for 24 hrs before H2O2 challenge by Western blot method; assay type: cell-based; conditions: U-373MG ATCC
U373 MG [12] = test: Induction of ROS production in human U373MG cells at 5 uM after 24 hrs by DCFH-DA assay; assay type: functional, cell-based; conditions: U-373MG ATCC
U373 MG [13] = test: Induction of HO-1 activity in human U373MG cells assessed as bilirubin production per mg protein preincubated at 10 uM for 24 hrs before H2O2 challenge by fluorimetric method (reference value: 19.6 +/-3.5 pmol/hr/mg protein); assay type: functional, U-373MG ATCC
[14] = Cytotoxicity against human U373MG cells assessed as dye reduction at 1 to 10 uM after 24 hrs by MTT assay; assay type: cell-based, U-373MG ATCC; conditions: read-out: Activity
U373 MG [15] = test: Inhibition of H2O2-induced oxidative stress in human U373MG cells assessed as GSH level per mg protein at 5 uM by fluorimetric method (reference value: 17.1 +/- 1.7 nmol/mg protein); assay type: functional, U-373MG ATCC
U373 MG [16] = test: Induction of Glutathione reductase activity in human U373MG cells assessed as […] per mg protein preincubated at 5 uM for 24 hrs before H2O2 challenge by fluorimetric method (reference value: 9.3 +/- 2.2 nmol/min/mg protein); assay type: functional, U-373MG ATCC
U373 MG [17] = test: Induction of SOD activity in human U373MG cells assessed per mg protein preincubated at 5 uM for 24 hrs before H2O2 challenge by fluorimetric method (reference value: 14.2 +/- 3 UI/mg protein); assay type: functional, U-373MG ATCC
U373 MG [18] = test: Inhibition of H2O2-induced lipid peroxidation in human U373MG cells assessed as reduction in MDA levels per mg protein at 5 uM by HPLC analysis (reference value: 0.95 +/- 0.03 nmol/mg protein); assay type: functional, U-373MG ATCC
U373 MG [19] = test: Induction of Nrf2 nuclear protein expression in H2O2-stimulated human U373MG cells preincubated at 5 uM for 24 hrs before H2O2 challenge by Western blot method; assay type: functional, cell-based; conditions: U-373MG ATCC
U-373MG ATCC [20] = test: Antioxidant activity in human U373MG cells assessed as reduction in H2O2-induced morphological changes preincubated at 10 uM for 24 hrs before H2O2 challenge by phase-contrast microscopy; assay type: functional, cell-based
U373 MG [21] = test: Induction of total GPx activity in human U373MG cells assessed as […] per mg protein preincubated at 5 uM for 24 hrs before H2O2 challenge by fluorimetric method (reference value: 58.5 +/- 5.1 nmol/min/mg protein); assay type: functional, U-373MG ATCC
[22] = Cytotoxicity against human U373MG cells assessed as LDH release at 1 to 10 uM after 24 hrs by LDH assay; assay type: cell-based; conditions: u-373mg atcc
U373 MG [23] = test: Inhibition of H2O2-induced oxidative stress in human U373MG cells assessed as GSSG level per mg protein at 10 uM by fluorimetric method (reference value: 9.2 +/- 0.9 nmol/mg protein); assay type: functional, U-373MG ATCC
U373 MG [24] = test: Induction of CAT activity in human U373MG cells assessed per mg protein preincubated at 5 uM for 24 hrs before H2O2 challenge by fluorimetric method (reference value: 18.9 +/- 0.4 UI/mg protein); assay type: functional, U-373MG ATCC
[25] = molecular target: T1, Nuclear factor erythroid 2-related factor 2 (Homo sapiens); test: Induction of Nrf2-mediated CAT protein expression in H2O2-stimulated human U373MG cells preincubated at 5 uM for 24 hrs before H2O2 challenge by Western blot method; assay type: cell-based; conditions: U-373MG ATCC
U373 MG [26] = test: Inhibition of H2O2-induced lipid peroxidation in human U373MG cells assessed as reduction in MDA levels per mg protein at 10 uM by HPLC analysis (reference value: 0.95 +/- 0.03 nmol/mg protein); assay type: functional, U-373MG ATCC
U373 MG [27] = test: Induction of SOD activity in human U373MG cells assessed per mg protein preincubated at 10 uM for 24 hrs before H2O2 challenge by fluorimetric method (reference value: 14.2 +/- 3 UI/mg protein); assay type: functional, U-373MG ATCC

Structure (SMILES)	Ratio (U373 MG [1])	Activity (U373 MG [2])	Activity (U373 MG [3])	Activity (U373 MG [4])	Activity (U373 MG [5])	Activity (U373 MG [6])	Activity (U-373MG ATCC [7])	Activity (U373 MG [8])	Activity (U373 MG [9])	Activity [10]	Activity [11]	Activity (U373 MG [12])	Activity (U373 MG [13])	viability at 24 h, up to 10 µM [14]	Activity (U373 MG [15])	Activity (U373 MG [16])	Activity (U373 MG [17])	Activity (U373 MG [18])	Activity (U373 MG [19])	Activity (U-373MG ATCC [20])	further results
C=CC(=C)CC[C@H]1[C@]2(C)CCC[C@](C)(CO)[C@H]2[C@H](O)C[C@]1(C)O [ANDALUSOL]	5.1	39.8 nmol	inactive	inactive	Active	7 nmol	Active	19.7 nmol/min	23.7 IU	Active	Active	inactive	33.6 pmol/h	90%	36.3 nmol	19.1 nmol/min	24.7 IU	0.62 nmol	Active	Active	Activity (U373 MG [21]): 89.1 nmol/min; Activity [22]: < 10%; Activity (U373 MG [23]): 6.8 nmol; Activity (U373 MG [24]): 22.1 IU; Activity [25]: Active; Activity (U373 MG [26]): 0.51 nmol; Activity (U373 MG [27]): 26 IU
CC1(C)CCC[C@]2(C)[C@@H]1C[C@H](O)[C@@]13C=C[C@@](CO)(C1)[C@H](O)C[C@@H]23 [CONCHITRIOL]	2	19.8 nmol	inactive	inactive	inactive	8.9 nmol	Active	10.2 nmol/min	17.4 IU	inactive	inactive	inactive	17.8 pmol/h	90%	18 nmol	8.2 nmol/min	15 IU	0.91 nmol	inactive	Active	Activity (U373 MG [21]): 59.5 nmol/min; Activity [22]: < 10%; Activity (U373 MG [23]): 8.6 nmol; Activity (U373 MG [24]): 18.8 IU; Activity [25]: inactive; Activity (U373 MG [26]): 0.87 nmol; Activity (U373 MG [27]): 18.8 IU
CC1(C)CCC[C@H]2C1=CC[C@H]1C[C@@](C)([C@@H](O)CO)C[C@@H](O)[C@@]12C [LAGASCATRIOL]	3.8	30 nmol	inactive	inactive	Active	7.1 nmol	Active	20.6 nmol/min	23.9 IU	Active	Active	inactive	32.6 pmol/h	90%	27.6 nmol	15.8 nmol/min	22.8 IU	0.6 nmol	Active	Active	Activity (U373 MG [21]): 76.9 nmol/min; Activity [22]: < 10%; Activity (U373 MG [23]): 7 nmol; Activity (U373 MG [24]): 24.2 IU; Activity [25]: Active; Activity (U373 MG [26]): 0.57 nmol; Activity (U373 MG [27]): 23.9 IU
